Test results reported in patent US6660872B1, “Method of producing methoxyimino acetic amide” (Bayer Aktiengesellschaft, priority 1999, dated 2003).
Values joined by “and” are separate entries in the source; they are usually repeats but may differ in a detail not shown here. Identical values can stand only once.

Assay: determination of the logP-Values by HPLC according to EEC-Direktive 79/831 Annex V. A8
Type: physicochemical
Settings: gradient method, acetonitrile/0,1% aqueous phosphoric acid; for chromatographic logP: HPLC (gradient, acetonitrile/0.1% aqueous phosphoric acid), read-out: log p
Method: The determination of the logP-Values was carried out for all examples according to the EEC-Direktive 79/831 Annex V. A8 by HPLC (gradient method, acetonitrile/0,1% aqueous phosphoric acid).

Row | SMILES | chromatographic logP | log p
1 | COC(=O)C(=O)c1ccccc1O [methyl 2-hydroxyphenylglyoxylate] | 1.87 | 
2 | CNC(=O)/C(=N/OC)c1ccccc1O [N-methyl-E-2-(2-hydroxyphenyl)-2-methoxyimino-acetamide] | 0.98 | 
3 | CO/N=C(\C(=O)OC)c1ccccc1O [methyl Z-2-(2-hydroxyphenyl)-2-methoxyimino-acetate] | 2.39 | 2.38 and 2.37
4 | CO/N=C(/C(=O)OC)c1ccccc1O [methyl E-2-(2-hydroxyphenyl)-2-methoxyimino-acetate] | 1.48 | 
5 | CNC(=O)/C(=N\OC)c1ccccc1Oc1ncnc(F)c1F [N-methyl-Z-2-[2-(5,6-difluoro-pyrimidin-4-yloxy)phenyl]-2-methoxyiminoacetamide] | 1.87 | 
6 | CNC(=O)/C(=N\OC)c1ccccc1O [N-methyl-Z-2-(2-hydroxyphenyl)-2-methoxyiminoacetamide] | 1.29 | 
7 | O=C1Oc2ccccc2/C1=N\O [E-benzofuran-2,3-dione 3-oxime] | 1.55 | 
8 | COC(=O)/C(=N/O)c1ccccc1O [methyl E-2-(2-hydroxyphenyl)-2-hydroxyimino-acetate] | 0.95 | 
9 | CNC(=O)/C(=N/OC)c1ccccc1Oc1ncnc(Oc2ccccc2Cl)c1F (single isomer, unassigned) [XI-2, E-isomer, N-methyl-E-2-[2-(5-fluoro-2′-chlorophenoxypyrimidin-4-yloxy)phenyl]-2-methoxyiminoacetamide] |  | 3.01
10 | CNC(=O)/C(=N/OC)c1ccccc1Oc1ncnc(Oc2cccc(Cl)c2C)c1F [XI-1, E-isomer, N-methyl-E-2-[2-(5-fluoro-2′-methyl-3′-chlorophenoxypyrimidin-4-yloxy)phenyl]-2-methoxyiminoacetamide] | 3.51 | 3.50
11 | CNC(=O)/C(=N\OC)c1ccccc1Oc1ncnc(Oc2ccccc2Cl)c1F (single isomer, unassigned) [XI-2, Z-isomer, N-methyl-Z-2-[2-(5-fluoro-2′-chlorophenoxypyrimidin-4-yloxy)-phenyl]-2-methoxyiminoacetamide] |  | 2.95 and 2.94
12 | CNC(=O)/C(=N\OC)c1ccccc1Oc1ncnc(Oc2cccc(Cl)c2C)c1F [XI-1, Z-isomer, N-methyl-Z-2-[2-(5-fluoro-2′-methyl-3′-chlorophenoxy-pyrimidin-4-yloxy)phenyl]-2-methoxyiminoacetamide] | 3.44 | 3.43
13 | CNC(=O)/C(=N/OC)c1ccccc1Oc1ncnc(F)c1F [N-methyl-E-2-[2-(5,6-difluoropyrimidin-4-yloxy)-phenyl]-2-methoxyiminoacetamide] | 1.95 | 
14 | COC(=O)/C(=N\O)c1ccccc1O [methyl Z-2-(2-hydroxyphenyl)-2-hydroxyimino-acetate] | 1.68 | 1.70
